Results reported in US20240246964A1 (Arbutus Biopharma Corporation, priority 2021, published 2024).

Key:
human PD-L1 = human PD-L1 (Homo sapiens (Human), UniProt Q9NZQ7); test: T cell activation luciferase reporter cell culture system (T Cell Activation Assay); type: cell-based; settings: luciferase reporter assay; PD-L1 aAPC/CHO-K1 cells with PD-1 effector Jurkat T cells
[1] = molecular target: PD-L1 His protein / PD-1 Fc protein (Homo sapiens (Human), UniProt Q9NZQ7); test: HTRF Assay (PD-1/PD-L1 interaction); type: binding; settings: PD-L1 His 6 nM, PD-1 Fc 6 nM
Chain of PD-L1 His protein / PD-1 Fc protein (Q9NZQ7 19-238): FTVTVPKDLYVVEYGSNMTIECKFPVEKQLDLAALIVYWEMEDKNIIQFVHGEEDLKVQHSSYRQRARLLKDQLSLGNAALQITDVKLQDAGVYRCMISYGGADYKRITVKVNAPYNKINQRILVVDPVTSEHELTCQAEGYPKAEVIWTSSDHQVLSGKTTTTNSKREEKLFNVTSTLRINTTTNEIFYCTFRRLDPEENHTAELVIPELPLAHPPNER

Chain of human PD-L1 (Q9NZQ7 19-290): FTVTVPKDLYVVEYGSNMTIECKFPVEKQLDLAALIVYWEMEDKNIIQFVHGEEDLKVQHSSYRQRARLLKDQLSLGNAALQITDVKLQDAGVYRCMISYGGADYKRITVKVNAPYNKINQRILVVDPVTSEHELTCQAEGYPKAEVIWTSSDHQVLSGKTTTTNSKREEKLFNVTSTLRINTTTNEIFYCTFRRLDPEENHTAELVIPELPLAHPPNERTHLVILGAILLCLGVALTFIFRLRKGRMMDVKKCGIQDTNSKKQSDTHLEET

COc1cc(-c2nccc(-c3cccc4c3CC[C@@H]4Oc3nc(OC)c(CN4CC5(CNC(=O)C5)C4)cc3C(F)(F)F)c2Cl)cc(F)c1CN1CC2(CNC(=O)C2)C1 [Example 306, (S)-2-(4-(3-chloro-4-(1-((6-methoxy-5-((7-oxo-2,6-diazaspiro[3.4]octan-2-yl)methyl)-3-(trifluoromethyl)pyridin-2-yl)oxy)-2,3-dihydro-1H-inden-4-yl)pyridin-2-yl)-2-fluoro-6-methoxybenzyl)-2,6-diazaspiro[3.4]octan-7-one]
EC50 (human PD-L1): 361 nM
IC50 [1]: 0.76 nM

COc1nc(-c2cccc(-c3ccnc(-c4cc(Cl)c5c(c4)CCN(CC4COC4)C5)c3Cl)c2Cl)ccc1CNC[C@@H]1CCC(=O)N1 [Example 307, (S)-5-((((6-(2-Chloro-3-(3-chloro-2-(8-chloro-2-(oxetan-3-ylmethyl)-1,2,3,4-tetrahydroisoquinolin-6-yl)pyridin-4-yl)phenyl)-2-methoxypyridin-3-yl)methyl)amino)methyl)pyrrolidin-2-one]
EC50 (human PD-L1): 186 nM
IC50 [1]: 1.41 nM

COc1nc(-c2cccc(-c3ccnc(-c4ccc5c(CN6CC7(C6)CN(C(C)=O)C7)nn(C)c5c4)c3Cl)c2Cl)ccc1CNC[C@@H]1CCC(=O)N1 [Example 308, (S)-5-((((6-(3-(2-(3-((6-Acetyl-2,6-diazaspiro[3.3]heptan-2-yl)methyl)-1-methyl-1H-indazol-6-yl)-3-chloropyridin-4-yl)-2-chlorophenyl)-2-methoxypyridin-3-yl)methyl)amino)methyl)pyrrolidin-2-one]
EC50 (human PD-L1): 24.1 nM
IC50 [1]: 0.95 nM

COc1nc(-c2cccc(-c3ccnc(-c4ccc5c(CN6CC[C@H](C(=O)O)C6)nn(C)c5c4)c3Cl)c2Cl)ccc1CNC[C@@H]1CCC(=O)N1 [Example 309, (S)-1-((6-(3-Chloro-4-(2-chloro-3-(6-methoxy-5-(((((S)-5-oxopyrrolidin-2-yl)methyl)amino)methyl)pyridin-2-yl)phenyl)pyridin-2-yl)-1-methyl-1H-indazol-3-yl)methyl)pyrrolidine-3-carboxylic acid]
EC50 (human PD-L1): 75 nM
IC50 [1]: 0.3 nM

COc1nc(-c2cccc(-c3ccnc(-c4cc(OC)c5nc(CNC[C@@H]6CCC(=O)N6)cn5c4)c3Cl)c2Cl)ccc1CNC[C@@H]1CCC(=O)N1 [Example 310, (S)-5-((((6-(2-Chloro-3-(3-chloro-2-(8-methoxy-2-(((((S)-5-oxopyrrolidin-2-yl)methyl)amino)methyl)imidazo[1,2-a]pyridin-6-yl)pyridin-4-yl)phenyl)-2-methoxypyridin-3-yl)methyl)amino)methyl)pyrrolidin-2-one]
EC50 (human PD-L1): 90.5 nM
IC50 [1]: 1.8 nM

COc1cc(-c2nccc(-c3cccc(-c4cnc(CNC5CCN(C(C)=O)CC5)c(OC)n4)c3Cl)c2Cl)ccc1CNC1CCN(C(C)=O)CC1 [Example 311, 1-(4-(((5-(3-(2-(4-(((1-Acetylpiperidin-4-yl)amino)methyl)-3-methoxyphenyl)-3-chloropyridin-4-yl)-2-chlorophenyl)-3-methoxypyrazin-2-yl)methyl)amino)piperidin-1-yl)ethan-1-one]
EC50 (human PD-L1): 152 nM
IC50 [1]: 0.907 nM

COc1nc(-c2cccc(-c3ccnc(-c4cc(OC)c5nc(CN[C@H]6C[C@](C)(O)C6)cn5c4)c3Cl)c2Cl)ccc1CNC[C@@H]1CCC(=O)N1 [Example 312, (S)-5-((((6-(2-chloro-3-(3-chloro-2-(2-((((1r,3r)-3-hydroxy-3-methylcyclobutyl)amino)methyl)-8-methoxyimidazo[1,2-a]pyridin-6-yl)pyridin-4-yl)phenyl)-2-methoxypyridin-3-yl)methyl)amino)methyl)pyrrolidin-2-one]
EC50 (human PD-L1): 178 nM
IC50 [1]: 0.813 nM

COc1nc(-c2cccc(-c3ccnc(-c4cc(OC)c5nc(CN6CC7(CNC(=O)C7)C6)cn5c4)c3Cl)c2Cl)ccc1CNC[C@@H]1CCC(=O)N1 [Example 314, (S)-2-((6-(3-Chloro-4-(2-chloro-3-(6-methoxy-5-((((5-oxopyrrolidin-2-yl)methyl)amino)methyl)pyridin-2-yl)phenyl)pyridin-2-yl)-8-methoxyimidazo[1,2-a]pyridin-2-yl)methyl)-2,6-diazaspiro[3.4]octan-7-one]
EC50 (human PD-L1): 69.2 nM
IC50 [1]: 1.63 nM

COc1cc(-c2nccc(-c3cccc(-c4ccc(CNC5CCN(C(C)=O)CC5)c(OC)n4)c3Cl)c2Cl)ccc1CN(C)C1CCN(C(C)=O)CC1 [Example 315, 1-(4-(((6-(3-(2-(4-(((1-acetylpiperidin-4-yl)(methyl)amino)methyl)-3-methoxyphenyl)-3-chloropyridin-4-yl)-2-chlorophenyl)-2-methoxypyridin-3-yl)methyl)amino)piperidin-1-yl)ethan-1-one]
EC50 (human PD-L1): 28.9 nM
IC50 [1]: 1.54 nM

COc1cc(-c2nccc(-c3cccc(-c4ccc(CNC5CCN(C(=O)C6CC6)CC5)c(OC)n4)c3Cl)c2Cl)cc(F)c1CNC1CCN(C(=O)C2CC2)CC1 [Example 316, (4-(((6-(2-Chloro-3-(3-chloro-2-(4-(((1-(cyclopropanecarbonyl)piperidin-4-yl)amino)methyl)-3-fluoro-5-methoxyphenyl)pyridin-4-yl)phenyl)-2-methoxypyridin-3-yl)methyl)amino)piperidin-1-yl)(cyclopropyl)methanone]
EC50 (human PD-L1): 45.7 nM
IC50 [1]: 3.45 nM

COc1nc(-c2cccc(-c3ccnc(-c4cc(OC)c5nc(CN6CC(C)(O)C6)cn5c4)c3Cl)c2Cl)ccc1CNC[C@@H]1CCC(=O)N1 [Example 317, (S)-5-((((6-(2-Chloro-3-(3-chloro-2-(2-((3-hydroxy-3-methylazetidin-1-yl)methyl)-8-methoxyimidazo[1,2-a]pyridin-6-yl)pyridin-4-yl)phenyl)-2-methoxypyridin-3-yl)methyl)amino)methyl)pyrrolidin-2-one]
EC50 (human PD-L1): 62.6 nM
IC50 [1]: 1.94 nM

COc1nc(-c2cccc(-c3ccnc(-c4cc(OC)c5nc(CNC6CCN(C(C)=O)CC6)cn5c4)c3Cl)c2Cl)ccc1CNC[C@@H]1CCC(=O)N1 [Example 318, (S)-5-((((6-(3-(2-(2-(((1-Acetylpiperidin-4-yl)amino)methyl)-8-methoxyimidazo[1,2-a]pyridin-6-yl)-3-chloropyridin-4-yl)-2-chlorophenyl)-2-methoxypyridin-3-yl)methyl)amino)methyl)pyrrolidin-2-one]
EC50 (human PD-L1): 31.5 nM
IC50 [1]: 1.8 nM

COc1nc(-c2cccc(-c3ccnc(-c4cc(OC)c5nc(CN6CC7(C6)CN(C(C)=O)C7)cn5c4)c3Cl)c2Cl)ccc1CNC[C@@H]1CCC(=O)N1 [Example 319, (S)-5-((((6-(3-(2-(2-((6-Acetyl-2,6-diazaspiro[3.3]heptan-2-yl)methyl)-8-methoxyimidazo[1,2-a]pyridin-6-yl)-3-chloropyridin-4-yl)-2-chlorophenyl)-2-methoxypyridin-3-yl)methyl)amino)methyl)pyrrolidin-2-one]
EC50 (human PD-L1): 38.3 nM
IC50 [1]: 0.767 nM

COc1nc(-c2cccc(-c3ccnc(-c4cc(OC)c5nc(CN6CC7(CCC(=O)N7)C6)cn5c4)c3Cl)c2Cl)ccc1CNC[C@@H]1CCC(=O)N1 [Example 320, (S)-2-((6-(3-Chloro-4-(2-chloro-3-(6-methoxy-5-((((5-oxopyrrolidin-2-yl)methyl)amino)methyl)pyridin-2-yl)phenyl)pyridin-2-yl)-8-methoxyimidazo[1,2-a]pyridin-2-yl)methyl)-2,5-diazaspiro[3.4]octan-6-one]
EC50 (human PD-L1): 51.2 nM
IC50 [1]: 0.231 nM

COc1nc(-c2cccc(-c3ccnc(-c4cc(OC)c5nc(CNC6CC7(COC7)C6)cn5c4)c3Cl)c2Cl)ccc1CNC[C@@H]1CCC(=O)N1 [Example 321, (S)-5-((((6-(3-(2-(2-(((2-Oxaspiro[3.3]heptan-6-yl)amino)methyl)-8-methoxyimidazo[1,2-a]pyridin-6-yl)-3-chloropyridin-4-yl)-2-chlorophenyl)-2-methoxypyridin-3-yl)methyl)amino)methyl)pyrrolidin-2-one]
EC50 (human PD-L1): 64.7 nM
IC50 [1]: 0.847 nM

COc1cc(-c2nccc(-c3cccc(-c4ccc(CN5CCC(NC(C)=O)CC5)c(OC)n4)c3Cl)c2Cl)ccc1CN1CCC(NC(C)=O)CC1 [Example 322, N-(1-((6-(3-(2-(4-((4-Acetamidopiperidin-1-yl)methyl)-3-methoxyphenyl)-3-chloropyridin-4-yl)-2-chlorophenyl)-2-methoxypyridin-3-yl)methyl)piperidin-4-yl)acetamide]
EC50 (human PD-L1): 72.9 nM
IC50 [1]: 23.1 nM

COc1cc(-c2nccc(-c3cccc(-c4ccc(CNC5CCN(C(C)=O)CC5)c(OC)n4)c3Cl)c2Cl)ccc1CN1CCC(NC(C)=O)CC1 [Example 325, N-(1-(4-(4-(3-(5-(((1-Acetylpiperidin-4-yl)amino)methyl)-6-methoxypyridin-2-yl)-2-chlorophenyl)-3-chloropyridin-2-yl)-2-methoxybenzyl)piperidin-4-yl)acetamide]
EC50 (human PD-L1): 39.5 nM
IC50 [1]: 2.76 nM

COc1cc(-c2nccc(-c3cccc(-c4ccc(CNC5CCN(C(C)C)CC5)c(OC)n4)c3Cl)c2Cl)ccc1CNC1CCN(C(C)C)CC1 [Example 326, N-((6-(2-Chloro-3-(3-chloro-2-(4-(((1-isopropylpiperidin-4-yl)amino)methyl)-3-methoxyphenyl)pyridin-4-yl)phenyl)-2-methoxypyridin-3-yl)methyl)-1-isopropylpiperidin-4-amine]
EC50 (human PD-L1): 43 nM
IC50 [1]: 4.23 nM

COc1cc(-c2nccc(-c3cccc(-c4ccc(CNC5CCC(F)(F)CC5)c(OC)n4)c3Cl)c2Cl)ccc1CNC1CCC(F)(F)CC1 [Example 327, N-((6-(2-Chloro-3-(3-chloro-2-(4-(((4,4-difluorocyclohexyl)amino)methyl)-3-methoxyphenyl)pyridin-4-yl)phenyl)-2-methoxypyridin-3-yl)methyl)-4,4-difluorocyclohexan-1-amine]
EC50 (human PD-L1): 178 nM
IC50 [1]: 1.7 nM

COc1cc(-c2nccc(-c3cccc(-c4ccc(CNC5CCN(CCO)CC5)c(OC)n4)c3Cl)c2Cl)ccc1CNC1CCN(CCO)CC1 [Example 328, 2-(4-(((6-(2-Chloro-3-(3-chloro-2-(4-(((1-(2-hydroxyethyl)piperidin-4-yl)amino)methyl)-3-methoxyphenyl)pyridin-4-yl)phenyl)-2-methoxypyridin-3-yl)methyl)amino)piperidin-1-yl)ethan-1-ol]
EC50 (human PD-L1): 28.1 nM
IC50 [1]: 1.52 nM
